# Experimental data as given in US20070219224A1, “Compositions and Methods Relating to Pyrimidine Synthesis Inhibitors” (UAB RESEARCH FOUNDATION, THE, priority 2004, published 2007).
# Entries after “also recorded” stand apart in the source; their conditions may differ. Marks after values point to notes of the source that are not given here.
# Experiments:
# RSV-infected BALB/c mice [1] = experiment: Alveolar fluid clearance (AFC) in RSV-infected mice at day 2 p.i.; assay type: in vivo; set-up: effect of uridine in the AFC instillate on the A77-1726 effect on AFC: dose or concentration left out as unconfirmed; settings: for effect on RSV-mediated inhibition of AFC at d2 (in words): systemic treatment (leflunomide oral gavage; uridine, 6-MP i.p.); for effect on RSV-mediated inhibition of AFC at day 2 p.i. (in words): added to the AFC instillate
# Protocol: Preparation of viral inocula and infection of mice. […] J. Physiol. Lung Cell Mol. Physiol. […] Data for each experimental group was derived from a minimum of 2 independent infections.
# (§1) Systemic inhibition of de novo pyrimidine and purine synthesis. Leflunomide (5-methylisoxazole-4-[4-trifluoromethyl]carboxanilide, 35 mg/kg in distilled water containing 1% methylcellulose) was administered once daily by oral gavage in a volume of 300 μl/mouse for 8 days prior to infection, then throughout the infection period. Vehicle controls were gavaged with an equivalent volume of 1% methylcellulose in distilled water.
# To systemically block de novo pyrimidine synthesis, mice were gavaged once daily for 8 days with […] of the dihydro-orotate reductase (DHOR) inhibitor leflunomide ([…] suspended in 1% methylcellulose) or vehicle prior to infection, then at 0 and 24 hours p.i. AFC studies were performed at 48 hours p.i., with no additions to the AFC instillate.
# (§2) AFC studies were performed on anesthetized, ventilated BALB/c mice with normal body temperature and blood gases, over a 30 minute period after intratracheal instillation of 0.3 ml of isosmolar NaCl containing 5% fatty acid-free BSA. The number of mice analyzed per group is listed in the relevant bar of each graph.
# [2] = assay type: in vivo
# Protocol: (§3) Preparation of viral inocula and infection of mice. Preparation of viral stocks and intranasal infection of eight to twelve week-old pathogen-free BALB/c mice of either sex with RSV strain A2 (10^6 PFU in 100 μl) were performed as described in Davis et al., “Nucleotide-mediated inhibition of alveolar fluid clearance in BALB/c mice after respiratory syncytial virus infection,” Am. J. Physiol. Lung Cell Mol. Physiol. 286:L112-L120. (2004). Data for each experimental group was derived from a minimum of 2 independent infections.
# as §1, with “water. […]” for “water.”
# RSV strain A2 = experiment: RSV replication in mouse lungs; assay type: in vivo, Respiratory syncytial virus; settings: RSV-infected mice, day 2 p.i.; systemic treatment
# Protocol: as §3
# as §1, with “water. […]” for “water.”
# [3] = test system: IFN-α, IL-1β, KC, TNF-α in BALF; experiment: Measurement of proinflammatory cytokines in BALF (ELISA); assay type: in vivo, BALB/c mice; settings: RSV-infected mice, d2
# Protocol: as §3
# (§4) Bronchoalveolar lavage. Bronchoalveolar lavage fluid (BALF) was collected as previously described in Davis et al., (2004), using 1 ml of sterile normal saline for cytokine ELISAs, or 0.3 ml of sterile saline for nucleotide assays. Lavagates were centrifuged to remove cells and supernatants stored at −80° C.
# as §1, with “water. […].” for “water.”
# Measurement of proinflammatory cytokines in BALF. Cytokine levels were determined using Quantikine M ELISA kits (R & D Systems), in accordance with manufacturer's instructions.
# RSV-infected BALB/c mice [4] = experiment: Lung water content (wet:dry weight ratio) after RSV infection; assay type: in vivo
# Protocol: as §3
# as §1, with “water. […]” for “water.”
# UTP/ATP content of BALF = experiment: Measurement of nucleotides (UTP/ATP content) in BALF of RSV-infected mice; assay type: in vivo, BALB/c mice; settings: d2
# Protocol: as §3, §4
# Measurement of nucleotides in BALF. Endogenous nucleotidases in BALF were heat denatured (100° C., 3 minutes) and UTP/ATP content measured using the […] and luciferine-luciferase assays, respectively.
# as §1, with “water. […]” for “water.”
# uninfected BALB/c mice = experiment: Alveolar fluid clearance (AFC) in uninfected or mock-infected mice; assay type: in vivo; settings: uninfected mice
# Protocol: Systemic inhibition of de novo pyrimidine and purine synthesis. […] Vehicle controls were gavaged with an equivalent volume of 1% methylcellulose in distilled water. Uridine (1 g/kg in 0.9% NaCl) was administered by i.p. injection every 12 hours in a volume of 100 μl (8). […]
# as §2
# [5] = RSV-infected mice, day 2 p.i., final concentration 25 μM (Table 6)
# [6] = RSV-infected mice, d2, inhibitor 100 μM in AFC instillate (Table 5)
compound,measurement,setting,value
O=c1[nH]cnc2nc[nH]c12 [hypoxanthine],effect of hypoxanthine in the AFC instillate on the MPA effect on AFC,"RSV-infected BALB/c mice [1]; RSV-infected mice, day 2 p.i., 50 mM hypoxanthine as printed",fully reversed; also recorded: blocked
O=c1ccn([C@@H]2O[C@H](CO)[C@@H](O)[C@H]2O)c(=O)[nH]1 [Uridine],effect of concomitant uridine on the leflunomide effect on weight loss,"[2]; RSV-infected mice, D1 and d2",did not prevent this effect
same,virus replication in lung tissue at d2,RSV strain A2,no effect on virus replication; also recorded: unaffected
same,effect of concomitant uridine on the leflunomide effect on BALF cytokines,[3]; exception IFN-α,only partially reversed
same,effect of uridine in the AFC instillate on the A77-1726 effect on AFC,"RSV-infected BALB/c mice [1]; RSV-infected mice, day 2 p.i.",fully reversed; also recorded: blocked
same,AFC30BASAL (mean % basal AFC after 30 minutes ± SE),"RSV-infected BALB/c mice [1]; RSV-infected mice, day 2 p.i., leflunomide 5 mg/kg oral gavage once daily, uridine 1 mg/kg i.p. q12h",22.89 ± 2.22%
same,effect of concomitant uridine on the leflunomide effect on AFC,"RSV-infected BALB/c mice [1]; RSV-infected mice, day 2 p.i., uridine i.p. throughout the leflunomide treatment period",prevented; also recorded: reversed
same,effect on RSV-mediated inhibition of AFC at d2 (in words),RSV-infected BALB/c mice [1],no effect on AFC
same,effect of concomitant uridine on the leflunomide effect on lung water content,RSV-infected BALB/c mice [4]; day 2 p.i.,reversed this effect; also recorded: prevented this effect
same,effect of concomitant uridine on the leflunomide effect on BALF nucleotides,UTP/ATP content of BALF,reversed the effect of leflunomide on BALF UTP and ATP levels; also recorded: caused a significant increase in the BALF nucleotide content over that in untreated RSV-infected mice
O=c1c(-c2ccc(O)cc2)coc2cc(O)cc(O)c12 [Genistein],AFC30BASAL (mean % basal AFC after 30 minutes ± SE),RSV-infected BALB/c mice [1]; [5],20.39 ± 0.73%
same,effect on RSV-mediated inhibition of AFC at day 2 p.i. (in words),RSV-infected BALB/c mice [1],not recapitulated; also recorded: not replicated
"N=C(N)NC(=O)c1nc(Cl)c(N)nc1N [AMIL, amiloride]",AFC (mean % AFC ± SE) with amiloride in instillate,uninfected BALB/c mice; 1.5 mM amiloride added to the instillate,14.65 ± 1.59 %
same,AFC (mean % AFC ± SE) with amiloride in instillate,"RSV-infected BALB/c mice [1]; RSV-infected mice, d2, 1.5 mM amiloride added to the instillate",22.82 ± 1.92%
CCN(CC)CCOc1ccc(C(=C(Cl)c2ccccc2)c2ccccc2)cc1 [Clomiphene],AFC (mean % AFC ± SE),"RSV-infected BALB/c mice [1]; RSV-infected mice, d2, inhibitor 20 μM in AFC instillate (Table 5)",31.05 ± 2.65 %
same,AFC30BASAL (mean % basal AFC after 30 minutes ± SE),"RSV-infected BALB/c mice [1]; RSV-infected mice, day 2 p.i., final concentration 20 μM (Table 6)",31.0 ± 2.67 %
same,effect on RSV-mediated inhibition of AFC at day 2 p.i. (in words),RSV-infected BALB/c mice [1],blocked
"O=C(O)c1cc([N+](=O)[O-])ccc1NCCCc1ccccc1 [NPPB, 5-nitro-2-(3-phenylpropylamino) benzoic acid]",AFC (mean % AFC ± SE),RSV-infected BALB/c mice [1]; [6],32.70 ± 2.18 %
same,AFC30BASAL (mean % basal AFC after 30 minutes ± SE),"RSV-infected BALB/c mice [1]; RSV-infected mice, day 2 p.i., final concentration 100 μM (Table 6)",35.12 ± 1.94 %
same,effect on RSV-mediated inhibition of AFC at day 2 p.i. (in words),RSV-infected BALB/c mice [1],blocked
"Sc1ncnc2nc[nH]c12 [6-MP, 6-mercaptopurine]",tolerance to anesthesia,[2]; 6-MP 35 mg/kg i.p. every 24 hours,poor tolerance to anesthesia (resulting in sporadic deaths)
same,body weight loss after RSV infection,"[2]; D1 and d2 p.i., versus untreated RSV-infected mice",significant increase in body weight loss
same,body weight during the pretreatment (preinfection) period,"[2]; before RSV infection, leflunomide 8 days, 6-MP 5 days",significant loss of body weight
same,virus replication in lung tissue at d2,RSV strain A2,no significant inhibitory effect
same,"BALF proinflammatory cytokine levels (IFN-α, IL-1β, KC, TNF-α) (in words)",[3],comparable decline
same,"IFN-α, mean cytokine concentration in BALF ± SE",[3]; systemic treatment,105 ± 14 pg/mL
same,"IL-1β, mean cytokine concentration in BALF ± SE",[3]; systemic treatment,9 ± 3 pg/mL
same,"KC, mean cytokine concentration in BALF ± SE",[3]; systemic treatment,329 ± 63 pg/mL
same,"TNF-α, mean cytokine concentration in BALF ± SE",[3]; systemic treatment,0*** pg/ml
same,AFC30BASAL (mean % basal AFC after 30 minutes ± SE),RSV-infected BALB/c mice [1]; [5],26.31 ± 1.85 %
same,effect on RSV-mediated inhibition of AFC at day 2 p.i. (in words),RSV-infected BALB/c mice [1],only a minor effect
same,effect on RSV-mediated inhibition of AFC at day 2 p.i. (in words),RSV-infected BALB/c mice [1]; listed as 6-mercaptopurine,not and only a small blocking effect
same,effect on RSV-mediated inhibition of AFC at d2 (in words),RSV-infected BALB/c mice [1],no effect on AFC
same,lung water content (wet:dry weight ratio) (in words),"RSV-infected BALB/c mice [4]; day 2, systemic treatment",did not alter lung wet:dry weight ratios
CNCCC(Oc1ccc(C(F)(F)F)cc1)c1ccccc1 (stereo not drawn) [Fluoxetine],AFC (mean % AFC ± SE),"RSV-infected BALB/c mice [1]; RSV-infected mice, d2, inhibitor 10 μM in AFC instillate (Table 5)",34.54 ± 0.79 %
same,AFC30BASAL (mean % basal AFC after 30 minutes ± SE),"RSV-infected BALB/c mice [1]; RSV-infected mice, day 2 p.i., final concentration 10 μM (Table 6)",34.54 ± 0.79 %
same,effect on RSV-mediated inhibition of AFC at day 2 p.i. (in words),RSV-infected BALB/c mice [1],blocked RSV-mediated inhibition of AFC
O=c1ccn([C@@H]2O[C@H](COP(=O)(O)OP(=O)(O)OP(=O)(O)O)[C@@H](O)[C@H]2O)c(=O)[nH]1 [UTP],effect of UTP in the AFC instillate on the VRAC inhibitor effect on AFC,"RSV-infected BALB/c mice [1]; RSV-infected mice, d2, 500 nM UTP",reversed
C/C(O)=C(\C#N)C(=O)Nc1ccc(C(F)(F)F)cc1 [A77-1726],AFC30BASAL (mean % basal AFC after 30 minutes ± SE),uninfected BALB/c mice; 50 μM in 100 μl normal saline intranasally 24 hours prior to AFC assay,23.19 ± 5.95 %
same,"effect on RSV-induced inhibition of AFC, intranasal treatment (in words)",RSV-infected BALB/c mice [1]; 50 μM in 100 μl normal saline intranasally at 24 hours p.i.,completely blocked
same,AFC30BASAL (mean % basal AFC after 30 minutes ± SE),"RSV-infected BALB/c mice [1]; RSV day 2 p.i., 50 μM in 100 μl normal saline intranasally 24 hours after infection",32.68 ± 1.1 %
same,AFC30BASAL (mean % basal AFC after 30 minutes ± SE),RSV-infected BALB/c mice [1]; [5],34.06 ± 1.88 %
same,effect on RSV-mediated inhibition of AFC at day 2 p.i. (in words),RSV-infected BALB/c mice [1],prevented; also recorded: reverses RSV-mediated inhibition of AFC
same,"lung wet:dry weight ratios, intranasal treatment",RSV-infected BALB/c mice [4]; A77-1726 intranasal,normalization of lung wet:dry weight ratios
"COc1c(C)c2c(c(O)c1C/C=C(\C)CCC(=O)O)C(=O)OC2 [MPA, mycophenolic acid]",AFC30BASAL (mean % basal AFC after 30 minutes ± SE),RSV-infected BALB/c mice [1]; [5],26.2 ± 1.7 %
same,effect on RSV-mediated inhibition of AFC at day 2 p.i. (in words),RSV-infected BALB/c mice [1],only a minor effect
same,effect on RSV-mediated inhibition of AFC at day 2 p.i. (in words),RSV-infected BALB/c mice [1]; listed as mycophenolic acid,not and only a small blocking effect
O=C(O)c1cccnc1Nc1cccc(C(F)(F)F)c1 [Niflumic acid],AFC (mean % AFC ± SE),RSV-infected BALB/c mice [1]; [6],20.28 ± 1.53%
same,effect on RSV-mediated inhibition of AFC at day 2 p.i. (in words),RSV-infected BALB/c mice [1],unaffected
apyrase,effect on RSV-mediated inhibition of AFC at day 2 p.i. (in words),RSV-infected BALB/c mice [1],reversed
"C[C@]1(C2CCCC2)Cc2cc(OCC(=O)O)c(Cl)c(Cl)c2C1=O [R(+)-IAA 94, R(+)-[(6,7-dichloro-2-cyclopentyl-2,3-dihydro-2-methyl-1-oxo-1H-inden-5yl)-oxy] acetic acid 94]",AFC (mean % AFC ± SE),RSV-infected BALB/c mice [1]; [6],34.25 ± 1.98 %
same,effect on RSV-mediated inhibition of AFC at day 2 p.i. (in words),RSV-infected BALB/c mice [1],blocked
CC/C(=C(\c1ccccc1)c1ccc(OCCN(C)C)cc1)c1ccccc1 [Tamoxifen],AFC (mean % AFC ± SE),"RSV-infected BALB/c mice [1]; RSV-infected mice, d2, inhibitor 25 μM in AFC instillate (Table 5)",34.50 ± 0.94 %
same,AFC30BASAL (mean % basal AFC after 30 minutes ± SE),RSV-infected BALB/c mice [1]; [5],34.5 ± 0.95 %
same,effect on RSV-mediated inhibition of AFC at day 2 p.i. (in words),RSV-infected BALB/c mice [1],blocked RSV-mediated inhibition of AFC
COc1ccc(Cl)cc1C(=O)NCCc1ccc(S(=O)(=O)NC(=O)NC2CCCCC2)cc1 [Glibenclamide],AFC (mean % AFC ± SE),RSV-infected BALB/c mice [1]; [6],24.24 ± 4.24%
same,effect on RSV-mediated inhibition of AFC at day 2 p.i. (in words),RSV-infected BALB/c mice [1],unaffected
